Laboratory results from patent publication US10543162B2 (Rutgers, The State University of New Jersey, priority 2015, dated 2020).

Columns and labels:
3T3 mouse fibroblasts = assay: Cytotoxicity / cytocompatibility (MTS cell viability); type: cell-based; details: 1000 μM, after 24 h
Experimental: In vitro cytocompatibility studies were performed by culturing 3T3 mouse fibroblasts in cell media (Dulbecco's Modified Eagle Medium supplemented with 10% Fetal Bovine Serum, 1% Penicillin Streptomycin, and 1% L-glutamate) containing the KA poly(carbonate-esters). Polymers (5a-5c, 6a-6e) and Dienols (4a-4e) were first sterilized under UV at λ=254 nm for 900 s (Spectronics Corporation, Westbury, N.Y.) and subsequently dissolved in DMSO to acquire a stock solution. The stock solution was then serial diluted with cell media. Cells were seeded in a 96-well plate at 2,000 cells/well in […]. Following incubation for 1 h, polymer-containing media in 1% DMSO, at concentrations capable of inhibiting tyrosinase (0.1 mg/mL, 0.01 mg/mL and 0.001 mg/mL) were added to allocated wells in a 96-well plate and incubated at 37° C. DMSO (1%) in cell media was used as a negative control.
Cell viability was determined using CellTiter 96® Aqueous One Solution Cell Proliferation Assay. After 24 h, 48 h, and 72 h incubation with polymers, 20 μL of (3-(4,5-dimethylthiazol-2-yl)-5-(3-carboxymethoxyphenyl)-2-(4-sulfophenyl)-2H-tetrazolium) (MTS) reagent was added to each well and further incubated for 4 h at 37° C. The absorbance was then recorded with a microplate reader (Coulter, Boulevard Brea, Calif.) at 490 nm. […]

[1] = Dienol (4) Log P determination by reverse-phase HPLC; type: physicochemical; details: for chromatographic logP: from HPLC log kw via calibration curve of reference samples' published Log Po,w, read-out: Calculated Log P Values; for Calculated kw: retention factor at 100% buffer, extrapolated from HPLC retention factors at MeOH:buffer 45:55→60:40, 25° C.
Experimental: Log P, partitioning coefficient of respective compounds between a hydrophilic (aqueous) and lipophilic (oil) phase, studies were conducted to investigate the relative hydrophobicity of Dienols (4). Using HPLC equipped with an XTerra reverse-phase C18 (RP18) 3.5 μm 4.6×150 mm column (Waters, Milford, Mass.) and Waters 2695 Separations Module, sample retention times were analyzed via a Waters 2487 Dual λ Absorbance Detector monitoring 254 and 270 nm. Mobile phases of HPLC grade methanol (MeOH) and 50 mM KH2PO4 with 1% formic acid in HPLC grade water were utilized at varying ratios (45:55→60:40) and run at 1 mL/min flow rate and 25° C. (Ayouni, et al., Chromatographia 2005, 62, (5-6), 251-255). All samples were first dissolved in DMSO and subsequently diluted with phosphate-buffer saline (PBS) to acquire 1% DMSO solutions and filtered through 0.22 μm PVDF syringe filters prior to autoinjection (20 μL).
Dienol retention factor (k) for each methanol concentration was calculated according to equation one, where tR and t0 are the retention times of the Dienols and dead time, as determined by the injection of sodium nitrate (Ayouni, et al., Chromatographia 2005, 62, (5-6), 251-255), respectfully. From the obtained retention factors the kw, retention factor at 100% buffer, was extrapolated. Hydroxybenzyl alcohol, benzyl alcohol, 2-phenylethanol, methylparaben, anisole, toluene, and thymol were used as reference samples and their retention times acquired. Using reference samples' published Log Po,w values (OECD Nuclear Energy Agency.; Organisation for Economic Co-operation and Development. In OECD guidelines for the testing of chemicals 117, Organisation for Economic Co-Operation and Development: Paris, 2004), a calibration curve was generated in which Log Po,w values were plotted on the y-axis whereas log kw values, obtained from the same method as above, were plotted on the x-axis (Ouimet, et al., Biomacromolecules 2015, 16, 2911-2919). Dienol Log P values were then calculated from the curve using equation 2. kw=(tR−t0)/t0 Equation 1 Log P=slope×log kw+y−intercept Equation 2
Thus, Dienol Log P values were extrapolated from an HPLC method to determine lipophilicity (OECD Nuclear Energy Agency.; Organisation for Economic Co-operation and Development. In OECD guidelines for the testing of chemicals 117, Organisation for Economic Co-Operation and Development: Paris, 2004). Retention factors (k) were calculated according to equation 1 for each concentration of MeOH and kw values extrapolated based off the retention times (Table 1).

## O=c1cc(CO)occ1O [Kojic Acid, 5-Hydroxy-2-(hydroxymethyl)-4-pyrone]
3T3 mouse fibroblasts
  cytocompatibility: slightly cytotoxic

## O=C(CCCCC(=O)OCc1cc(=O)c(O)co1)OCc1cc(=O)c(O)co1 [Compound 4b, KA (adipic) Dienol]
[1]
  chromatographic logP: 1.17
  Calculated kw: 2.40

## O=C(COCCOCCOCC(=O)OCc1cc(=O)c(O)co1)OCc1cc(=O)c(O)co1 [Compound 4e, KA (Tetraglycolic) Dienol]
[1]
  chromatographic logP: 0.235
  Calculated kw: 0.688

## O=C(CCCCCCCC(=O)OCc1cc(=O)c(O)co1)OCc1cc(=O)c(O)co1 [Compound 4c, KA (Azelaic) Dienol]
[1]
  chromatographic logP: 2.59
  Calculated kw: 16.0

## O=C(CCCCCCCCC(=O)OCc1cc(=O)c(O)co1)OCc1cc(=O)c(O)co1 [Compound 4d, KA (sebacic) Dienol]
[1]
  chromatographic logP: 3.1
  Calculated kw: 31.6

## O=C(CCC(=O)OCc1cc(=O)c(O)co1)OCc1cc(=O)c(O)co1 [Compound 4a, KA (succinic) Dienol]
[1]
  chromatographic logP: 0.353
  Calculated kw: 0.806
